According to patent US12215093B2, “Bicyclic carboxamides and methods of use thereof” (Tempest Therapeutics, Inc., priority 2018, dated 2025):

What was measured:
[1] = molecular target: T1, EP4 (Homo sapiens, UniProt P35408); test: Functional calcium flux assay, EP4; assay type: cell-based; conditions: stably transfected HEK293 cells; PGE2 10 nM; read-out: EP4 Ca2+-flux assay IC50
T1 construct: host or cells: stably transfected HEK293 cells co-expressing a promiscuous G protein and a clytin variant
T1 sequence (P35408 whole entry): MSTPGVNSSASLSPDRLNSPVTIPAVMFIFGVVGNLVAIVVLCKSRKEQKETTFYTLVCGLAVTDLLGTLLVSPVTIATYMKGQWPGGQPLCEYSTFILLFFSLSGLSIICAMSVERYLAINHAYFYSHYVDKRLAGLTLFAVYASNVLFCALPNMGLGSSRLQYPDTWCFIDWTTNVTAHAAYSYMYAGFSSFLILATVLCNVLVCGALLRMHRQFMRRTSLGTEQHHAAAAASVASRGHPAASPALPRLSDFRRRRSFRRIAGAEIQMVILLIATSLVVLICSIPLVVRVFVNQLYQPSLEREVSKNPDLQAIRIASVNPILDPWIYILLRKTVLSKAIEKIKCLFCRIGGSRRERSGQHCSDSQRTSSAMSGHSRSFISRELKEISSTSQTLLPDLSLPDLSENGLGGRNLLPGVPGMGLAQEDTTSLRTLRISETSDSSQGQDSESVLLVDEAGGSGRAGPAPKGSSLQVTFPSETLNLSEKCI
Method: (§1) Each receptor subtype has an additional promiscuous G protein added in order to couple the aforementioned receptor to the calcium signaling pathway. The parental cell line used also expresses a novel variant of clytin, a calcium-activated photo-protein, to enable sensitive luminescent detection. Briefly, cells were plated at 50,000 cells-per-well in black, clear bottom 96-well plates. The plated cells were allowed to sit at room temperature for 30 min prior to transferring to a humidified, 37° C., 5% CO2 incubator for 18 to 24 h. Assay buffer (HBSS with 20 mM HEPES) and loading buffer (assay buffer plus 10 μM coelenterazine) were prepared on the day of the assay. Assays were performed by aspirating media from the assay plate and washing once with assay buffer, then replacing with loading buffer and allowing the cells to incubate for 1.5 h at room temperature. Compounds were prepared in assay buffer at a 3× final concentration in non-binding plates. Compounds were added to the cell plates and incubated for 30 min at room temperature. The prostanoid receptor ligand PGE2 was prepared at a 4× dilution ratio for a final concentration of 10 nM. Plates were run on a Flexstation™ using a 100 ms integration luminescence protocol for a total of 60 sec with ligand addition at 15 sec. Data were obtained from relative light units as measured by area under the curve.

[2] = molecular target: EP2 (Homo sapiens, UniProt P43116); test: cell-based;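 also: functional calcium flux assay in stably transfected HEK293 cells expressing EP2 coupled via a promiscuous G protein, clytin luminescence read as area under the curve, 30 min compound preincubation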
Sequence of EP2 (P43116 whole entry): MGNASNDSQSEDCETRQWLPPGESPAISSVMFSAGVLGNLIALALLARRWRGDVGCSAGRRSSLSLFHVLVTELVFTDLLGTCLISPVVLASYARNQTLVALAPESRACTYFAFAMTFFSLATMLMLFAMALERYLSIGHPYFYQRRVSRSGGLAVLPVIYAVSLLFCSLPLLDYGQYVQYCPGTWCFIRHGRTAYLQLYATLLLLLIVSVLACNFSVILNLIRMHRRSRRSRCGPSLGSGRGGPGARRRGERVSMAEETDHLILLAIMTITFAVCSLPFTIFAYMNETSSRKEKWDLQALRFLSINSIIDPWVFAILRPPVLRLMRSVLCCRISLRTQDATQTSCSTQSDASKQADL
Method: as §1

Row | Compound | IC50 [1] [nM] | IC50 [2] [nM]
1 | O=C(NC1CC2(C1)CC(C(=O)O)C2)c1ccc(F)c2ccn(Cc3ccc(OC(F)(F)F)cc3)c12 (racemic) [Example 1, (racemic)-6-(4-Fluoro-1-(4-(trifluoromethoxy)benzyl)-1H-indole-7-carboxamido)spiro[3.3]heptane-2-carboxylic acid] | < 1 | 34
2 | O=C(NC1CC2(C1)CC(C(=O)O)C2)c1ccc(F)c2ccn(Cc3ccc4cc(F)ccc4c3)c12 (racemic) [Example 5, (racemic)-6-(4-fluoro-1-((6-fluoronaphthalen-2-yl)methyl)-1H-indole-7-carboxamido)spiro[3.3]heptane-2-carboxylic acid] | < 1 | < 25
3 | CC(C)(C)c1ccc(Cn2ccc3c(Cl)ccc(C(=O)NC4CC5(C4)CC(C(=O)O)C5)c32)cc1 (racemic) [Example 7, (racemic)-6-(1-(4-(tert-Butyl)benzyl)-4-chloro-1H-indole-7-carboxamido)spiro[3.3]heptane-2-carboxylic acid] | < 1 | < 25
4 | O=C(NC1CC2(C1)CC(C(=O)O)C2)c1ccc(F)c2ccn(Cc3ccc(-c4ccccc4)c(F)c3)c12 (racemic) [Example 10, (racemic)-6-(4-Fluoro-1-((2-fluoro-[1,1′-biphenyl]-4-yl)methyl)-1H-indole-7-carboxamido)spiro[3.3]heptane-2-carboxylic acid] | < 1 | < 25
5 | COc1ccc(-c2ccc(Cn3ccc4c(F)ccc(C(=O)NC5CC6(C5)CC(C(=O)O)C6)c43)cc2)cc1 (racemic) [Example 12, (racemic)-6-(4-fluoro-1-((4′-methoxy-[1,1′-biphenyl]-4-yl)methyl)-1H-indole-7-carboxamido)spiro[3.3]heptane-2-carboxylic acid] | < 1 | < 25
6 | N#Cc1ccc(-c2ccc(Cn3ccc4c(F)ccc(C(=O)NC5CC6(C5)CC(C(=O)O)C6)c43)cc2)cc1 (racemic) [Example 13, (racemic)-6-(1-((4′-cyano-[1,1′-biphenyl]-4-yl)methyl)-4-fluoro-1H-indole-7-carboxamido)spiro[3.3]heptane-2-carboxylic acid] | < 1 | 39
7 | COc1cccc(-c2ccc(Cn3ccc4c(F)ccc(C(=O)NC5CC6(C5)CC(C(=O)O)C6)c43)cc2)c1 (racemic) [Example 14, (racemic)-6-(4-fluoro-1-((3′-methoxy-[1,1′-biphenyl]-4-yl)methyl)-1H-indole-7-carboxamido)spiro[3.3]heptane-2-carboxylic acid] | < 1 | < 25
8 | N#Cc1cccc(-c2ccc(Cn3ccc4c(F)ccc(C(=O)NC5CC6(C5)CC(C(=O)O)C6)c43)cc2)c1 (racemic) [Example 15, (racemic)-6-(1-((3′-cyano-[1,1′-biphenyl]-4-yl)methyl)-4-fluoro-1H-indole-7-carboxamido)spiro[3.3]heptane-2-carboxylic acid] | < 1 | < 25
9 | COc1ccc(-c2ccc(Cn3ccc4c(F)ccc(C(=O)NC5CC6(C5)CC(C(=O)O)C6)c43)cc2)cc1F (racemic) [Example 16, (racemic)-6-(4-fluoro-1-((3′-fluoro-4′-methoxy-[1,1′-biphenyl]-4-yl)methyl)-1H-indole-7-carboxamido)spiro[3.3]heptane-2-carboxylic acid] | < 1 | < 25
10 | COc1ncc(-c2ccc(Cn3ccc4c(F)ccc(C(=O)NC5CC6(C5)CC(C(=O)O)C6)c43)cc2)cc1Cl (racemic) [Example 17, (racemic)-6-(1-(4-(5-Chloro-6-methoxypyridin-3-yl)benzyl)-4-fluoro-1H-indole-7-carboxamido)spiro[3.3]heptane-2-carboxylic acid] | 7 | < 25
11 | COc1ccccc1-c1ccc(Cn2ccc3c(F)ccc(C(=O)NC4CC5(C4)CC(C(=O)O)C5)c32)cc1 (racemic) [Example 18, (racemic)-6-(4-fluoro-1-((2′-methoxy-[1,1′-biphenyl]-4-yl)methyl)-1H-indole-7-carboxamido)spiro[3.3]heptane-2-carboxylic acid] | < 1 | 34
12 | COc1cc(-c2ccc(Cn3ccc4c(F)ccc(C(=O)NC5CC6(C5)CC(C(=O)O)C6)c43)cc2)ccc1F (racemic) [Example 19, (racemic)-6-(4-fluoro-1-((4′-fluoro-3′-methoxy-[1,1′-biphenyl]-4-yl)methyl)-1H-indole-7-carboxamido)spiro[3.3]heptane-2-carboxylic acid] | < 1 | < 25
13 | COc1cc(C#N)cc(-c2ccc(Cn3ccc4c(F)ccc(C(=O)NC5CC6(C5)CC(C(=O)O)C6)c43)cc2)c1 (racemic) [Example 20, (racemic)-6-(1-((3′-cyano-5′-methoxy-[1,1′-biphenyl]-4-yl)methyl)-4-fluoro-1H-indole-7-carboxamido)spiro[3.3]heptane-2-carboxylic acid] | < 1 | < 25
14 | O=C(NC1CC2(C1)CC(C(=O)O)C2)c1ccc(F)c2ccn(Cc3ccc(-c4ccc(OC5COC5)c(Cl)c4)cc3)c12 (racemic) [Example 21, (racemic)-6-(1-((3′-Chloro-4′-(oxetan-3-yloxy)-[1,1′-biphenyl]-4-yl)methyl)-4-fluoro-1H-indole-7-carboxamido)spiro[3.3]heptane-2-carboxylic acid] | 1 | 51
15 | O=C(NC1CC2(C1)CC(C(=O)O)C2)c1ccc(F)c2ccn(Cc3ccc(-c4ccc(OC5COC5)cc4)cc3)c12 (racemic) [Example 23, (racemic)-6-(4-Fluoro-1-((4′-(oxetan-3-yloxy)-[1,1′-biphenyl]-4-yl)methyl)-1H-indole-7-carboxamido)spiro[3.3]heptane-2-carboxylic acid] | 1 | 60
16 | CC(C)(C)c1ccc(Cn2ccc3c(C#N)ccc(C(=O)NC4CC5(C4)CC(C(=O)O)C5)c32)cc1 (racemic) [Example 27, (racemic)-6-(1-(4-(tert-Butyl)benzyl)-4-cyano-1H-indole-7-carboxamido)spiro[3.3]heptane-2-carboxylic acid] | < 1 | 45
17 | O=C(NC1CC2(C1)CC(C(=O)O)C2)c1ccc(F)c2ccn(Cc3ccc(N4CCOCC4)cc3)c12 (racemic) [Example 31, (racemic)-6-(4-Fluoro-1-(4-morpholinobenzyl)-1H-indole-7-carboxamido)spiro[3.3]heptane-2-carboxylic acid] | < 1 | 44
18 | O=C(NC1CC2(C1)CC(C(=O)O)C2)c1cccc2cnn(Cc3ccc(OC(F)(F)F)cc3)c12 (racemic) [Example 32, (racemic)-6-(1-(4-(Trifluoromethoxy)benzyl)-1H-indazole-7-carboxamido)spiro[3.3]heptane-2-carboxylic acid] | < 1 | < 25
19 | O=C(NC1CC2(C1)CC(C(=O)O)C2)c1cccc2cnn(Cc3ccc(-c4ccccc4)cc3)c12 (racemic) [Example 33, (racemic)-6-(1-([1,1′-biphenyl]-4-ylmethyl)-1H-indazole-7-carboxamido)spiro[3.3]heptane-2-carboxylic acid] | 3 | < 25
20 | CCOc1cc(-c2ccc(Cn3ccc4c(F)ccc(C(=O)NC5CC6(C5)CC(C(=O)O)C6)c43)cc2)ccn1 (racemic) [Example 36, (Racemic)-6-(1-(4-(2-ethoxypyridin-4-yl)benzyl)-4-fluoro-1H-indole-7-carboxamido)spiro[3.3]heptane-2-carboxylic acid] | < 1 | 72
21 | CNC(=O)c1cc(-c2ccc(Cn3ncc4c(Cl)ccc(C(=O)NC5CC6(C5)CC(F)(C(=O)O)C6)c43)cc2)ccn1 (racemic) [Example 102, (racemic)-6-(4-chloro-1-(4-(2-(methylcarbamoyl)pyridin-4-yl)benzyl)-1H-indazole-7-carboxamido)-2-fluorospiro[3.3]heptane-2-carboxylic acid] | 8.9 | 81
22 | O=C(O)CC1CC2(C1)CC(NC(=O)c1cc(F)cc3cnn(Cc4ccc(-c5ccccc5)cc4)c13)C2 (racemic) [Example 107, (racemic)-2-(6-(1-([1,1′-biphenyl]-4-ylmethyl)-5-fluoro-1H-indazole-7-carboxamido)spiro[3.3]heptan-2-yl)acetic acid] | < 1 | 33
23 | CC(c1ccc(-c2ccccc2)cc1)n1ncc2cccc(C(=O)NC3CC4(C3)CC(C(=O)O)C4)c21 (racemic) [Example 112, (Sa)-6-(1-((racemic)-1-([1,1′-Biphenyl]-4-yl)-ethyl)-1H-indazole-7-carboxamido)spiro[3.3]heptane-2-carboxylic acid] | 1.8 | < 25
24 | CC(c1ccc(-c2ccccc2)cc1)n1ncc2c(Cl)ccc(C(=O)NC3CC4(C3)CC(C(=O)O)C4)c21 (racemic) [Example 121, (Sa)-6-(1-((racemic)-1-([1,1′-biphenyl]-4-yl)-ethyl)-4-chloro-1H-indazole-7-carboxamido)spiro[3.3]heptane-2-carboxylic acid] | 6.6 | < 25
25 | CCOc1cccc(-c2ccc(C(C)n3ncc4cccc(C(=O)NC5CC6(C5)CC(C(=O)O)C6)c43)cc2)n1 (racemic) [Example 133, (Sa)-6-(1-((racemic)-1-(4-(6-Ethoxypyridin-2-yl)phenyl)-ethyl)-1H-indazole-7-carboxamido)spiro[3.3]heptane-2-carboxylic acid] | < 1 | 65
26 | [2H]C([2H])([2H])C([2H])(c1ccc(-c2ccccc2)cc1)n1ncc2c(Cl)ccc(C(=O)NC3CC4(C3)CC(C(=O)O)C4)c21 (racemic) [Example 166, (Sa)-6-(1-((racemic)-1-([1,1′-Biphenyl]-4-yl)ethyl-1,2,2,2-d4)-4-chloro-1H-indazole-7-carboxamido)spiro[3.3]heptane-2-carboxylic acid] | 3.9 | 26
